Measurements reported in paper PMC10179972, “New Hybrid Tetrahydropyrrolo[3,2,1-ij]quinolin-1-ylidene-2-thioxothiazolidin-4-ones as New Inhibitors of Factor Xa and Factor XIa: Design, Synthesis, and In Silico and Experimental Evaluation” (Molecules, 2023).
Like-named read-outs stand apart in the source and are kept apart here.

Tests used:
[1] = target: T1, factor Xa (Homo sapiens, UniProt P00742); conditions: cited from earlier work
T1 construct: followed by the addition of factor Xa (final concentration, 2.5 nmol·L^–1)

[2] = target: T2, factor XIa (Homo sapiens, UniProt P03951); assay: Inhibition of factor XIa, kinetics of hydrolysis of chromogenic substrate S2366; format: biochemical; conditions: for inhibition at 30 µM: 30 μM compound, factor XIa 0.8 nmol/L, S2366 200 μmol/L, pH 8.0, read-out: Percent Inhibition at 30 μM, XIa; for IC50: substrate S2366, buffer solution
Experimental: Compounds 12, 14 and 16 were evaluated for their anticoagulant activity against factors Xa and Xia, and the results are presented in Table 1. For the best Xa and XIa inhibitors, additional measurements were performed to determine the IC50 values. We measured the kinetics of the hydrolysis of the specific substrates S2765 or S2366 by factors Xa and XIa, respectively, in the buffer solution and in the presence of various concentrations of compounds.
(§1) A specific low-molecular-weight chromogenic substrate, S2765 (Z-D-Arg-Gly-Arg-pNA·2HCl), was used in the case of factor Xa, while the substrate S2366 (pyroGlu-Pro-ArgpNA·HCl) (both substrates from Chromogenix, USA) was used for factor XIa.
(§2) A buffer containing 140 mM NaCl, 20 mM HEPES, and 0.1% PEG 6000 (pH 8.0) was placed in the wells of a 96-well plate, followed by the addition of factor Xa (final concentration, 2.5 nmol·L^–1) or XIa (final concentration 0.8 nmol·L^–1), the substrate S2765 (final concentration, 200 μmol·L^–1) or S2366 (final concentration, 200 μmol·L^–1), and a solution of the test compound in DMSO (final concentration, 30 μmol·L^–1; the DMSO content in the well was no more than 2%). The kinetics of the formation of p-nitroaniline were measured using a THERMOmax Microplate Reader (Molecular Devices Corporation, USA) using the absorption of light with a wavelength of 405 nm. The initial rate of substrate degradation was determined from the initial slope of the 4-nitroaniline-formation curve. The rate of substrate degradation by the enzyme in the presence of the inhibitor was expressed as a percentage relative to the rate of substrate degradation in the absence of the inhibitor. The data obtained were processed using GraphPad Prism and OriginPro 8 software.

[3] = target: T2, factor XIa; parameters: method as in earlier work; conditions: known actives used in validation of docking protocol, ref [1]-[6] of Table S2, column Ligand ID, cited from earlier work
[4] = target: T1, factor Xa; assay: Inhibition of factor Xa, kinetics of hydrolysis of chromogenic substrate S2765; format: biochemical; conditions: for inhibition at 30 µM: 30 μM compound, factor Xa 2.5 nmol/L, S2765 200 μmol/L, pH 8.0, read-out: Percent Inhibition at 30 μM, Xa; for IC50: substrate S2765, buffer solution
Experimental: We measured the kinetics of the hydrolysis of the specific substrates S2765 or S2366 by factors Xa and XIa, respectively, in the buffer solution and in the presence of various concentrations of compounds.
as §1
as §2, with “The kinetics of the formation of p-nitroaniline were measured using a THERMOmax Microplate Reader (Molecular Devices Corporation, USA) using the absorption of light with a wavelength of 405 nm.” left out

T1 sequence (P00742 235-488 limits assumed): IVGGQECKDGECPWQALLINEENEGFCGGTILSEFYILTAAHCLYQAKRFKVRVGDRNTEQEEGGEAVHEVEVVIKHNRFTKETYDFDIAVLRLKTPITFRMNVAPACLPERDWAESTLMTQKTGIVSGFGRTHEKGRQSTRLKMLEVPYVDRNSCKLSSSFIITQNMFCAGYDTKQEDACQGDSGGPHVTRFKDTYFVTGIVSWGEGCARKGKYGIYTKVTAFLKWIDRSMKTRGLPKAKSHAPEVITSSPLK
T1 sequence (P00742 41-179 partner limits assumed): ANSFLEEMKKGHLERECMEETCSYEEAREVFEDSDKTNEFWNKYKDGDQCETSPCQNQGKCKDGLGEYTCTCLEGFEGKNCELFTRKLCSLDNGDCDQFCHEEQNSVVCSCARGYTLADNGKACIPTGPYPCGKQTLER
T2 sequence (P03951 388-625 limits assumed): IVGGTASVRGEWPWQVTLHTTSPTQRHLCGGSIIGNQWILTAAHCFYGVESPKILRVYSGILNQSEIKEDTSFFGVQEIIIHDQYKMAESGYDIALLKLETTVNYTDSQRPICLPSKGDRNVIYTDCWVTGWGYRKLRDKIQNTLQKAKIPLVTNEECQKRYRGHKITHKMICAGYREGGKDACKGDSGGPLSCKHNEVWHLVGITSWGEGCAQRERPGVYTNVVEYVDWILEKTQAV
T2 sequence (P03951 19-387 partner limits assumed): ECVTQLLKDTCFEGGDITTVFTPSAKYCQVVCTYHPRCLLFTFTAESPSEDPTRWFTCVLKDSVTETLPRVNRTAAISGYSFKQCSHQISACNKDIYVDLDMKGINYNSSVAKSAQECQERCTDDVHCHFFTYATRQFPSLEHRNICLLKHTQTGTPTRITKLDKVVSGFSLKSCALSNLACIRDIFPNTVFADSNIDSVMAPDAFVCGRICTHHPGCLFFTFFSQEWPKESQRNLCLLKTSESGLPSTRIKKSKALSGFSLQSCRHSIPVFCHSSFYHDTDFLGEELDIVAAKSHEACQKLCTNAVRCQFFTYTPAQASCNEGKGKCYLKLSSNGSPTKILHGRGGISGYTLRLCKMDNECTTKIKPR

| SMILES | inhibition at 30 µM [2] | inhibition at 30 µM [4] | IC50 [4] | further results |
| --- | --- | --- | --- | --- |
| CS(=O)(=O)c1ccccc1-c1ccc(N2CC[C@H](NS(=O)(=O)CCc3ccc(Cl)s3)C2=O)c(F)c1 [GSV] | – | – | – | IC50 ([1]; known actives of crystal complexes used in validation of docking protocol, no reference given, read-out: IC50, factor Xa (Table S2)): 0.2 nM |
| O=C(NC[C@H]1CN(c2ccc(N3CCOCC3=O)cc2)C(=O)O1)c1ccc(Cl)s1 [Rivaroxaban, reference compound] | 8% | – | – | factor-Xa inhibitor potency in words [1]: subnanomolar |
| Cc1cc(=O)[nH]c2ccc(Cl)cc12 [MVN] | – | – | – | IC50 [3]: > 1.1 nM |
| CC(C)CC(=O)Nc1cc(-c2ccc(C(N)=O)cc2C(=O)O)cc([C@@H]2C[C@](C)(c3ccccc3)c3cc(C(=N)N)ccc3N2)c1 [BMS-654457] | – | – | – | Ki ([3]; read-out: Ki, factor XIa (Table S2, values in brackets)): 0.2 nM |
| COc1ccccc1C(=O)Oc1cc2c3c(c1)C(C)CC(C)(C)N3C(=O)/C2=C1\SC(=S)NC1=O (centres unmarked) [12d, (Z)-4,4,6-Trimethyl-2-oxo-1-(4-oxo-2-thioxothiazolidin-5-ylidene)-1,2,5,6-tetrahydro-4H-pyrrolo[3,2,1-ij]quinolin-8-yl 2-methoxybenzoate] | 98% | 63% | 2350 ± 220 nM | IC50 [2]: 3790 ± 30 nM |
| CC1CC(C)(C)N2C(=O)/C(=C3\SC(=S)NC3=O)c3cc(OC(=O)c4ccccc4)cc1c32 (centres unmarked) [12c, (Z)-4,4,6-Trimethyl-2-oxo-1-(4-oxo-2-thioxothiazolidin-5-ylidene)-1,2,5,6-tetrahydro-4H-pyrrolo[3,2,1-ij]quinolin-8-yl benzoate] | 72% | 58% | – | – |
| CC1(c2ccc(Cl)cc2)CC(C)(C)N2C(=O)/C(=C3\SC(=S)NC3=O)c3cc(I)cc1c32 (centres unmarked) [12l, (Z)-5-(6-(4-Chlorophenyl)-8-iodo-4,4,6-trimethyl-2-oxo-5,6-dihydro-4H-pyrrolo[3,2,1-ij]quinolin-1(2H)-ylidene)-2-thioxothiazolidin-4-one] | 95% | 78% | 2870 ± 210 nM | IC50 [2]: 4300 ± 60 nM |
| CC1CC(C)(C)N2C(=O)/C(=C3\SC(=S)NC3=O)c3cc(I)cc1c32 (centres unmarked) [12b, (Z)-5-(8-Iodo-4,4,6-trimethyl-2-oxo-5,6-dihydro-4H-pyrrolo[3,2,1-ij]quinolin-1(2H)-ylidene)-2-thioxothiazolidin-4-one] | 12% | 81% | 3530 ± 80 nM | – |
| CCN1C(=O)/C(=C2/C(=O)N3c4c2cc(OC)cc4C(C)CC3(C)C)SC1=S (centres unmarked) [12f, (Z)-3-Ethyl-5-(8-methoxy-4,4,6-trimethyl-2-oxo-5,6-dihydro-4H-pyrrolo[3,2,1-ij]quinolin-1(2H)-ylidene)-2-thioxothiazolidin-4-one] | 5% | 18% | – | – |
